# In publication PMC11995724, “Antibiotic target discovery by integrated phenotypic and activity-based profiling of electrophilic fragments” (Cell chemical biology, 2025):
# Assay: in vitro
# Settings: human, hek293t cells
# Protocol: Mammalian cytotoxicity measurement was performed using Cell Titer-Glo 2.0 Cell Viability Assay (Promega, G9243) according to the manufacturer protocol. In brief, mammalian cells were seeded into 384-well white plates (Greiner, 781080) and incubated at 37°C for one day. Compounds from the Cys-Library were dispensed into the assay plate using epMotion 96. The plates were then incubated at 37°C for two days. An equal volume of Cell Titer-Glo 2.0 reagent was added into each well of the assay plate using epMotion 96 and incubated at 22°C for 10 min, followed by luminescence measurement using a Cytation 5 plate reader (BioTek).
row,Compound,"viability at 48 h, 25 µM"
1,"C=CC(=O)N(C)CC(=O)N1CCC(c2nc3c(s2)CCCC3)CC1 [2-N04, N-methyl-N-{2-oxo-2-[4-(4,5,6,7-tetrahydro-1,3-benzothiazol-2-yl)piperidin-1-yl]ethyl}prop-2-enamide]",92.5%
2,"O=C(CCl)NC1CN(c2ccc(C(F)(F)F)cc2)C1 [7-J06, 2-chloro-N-{1-[4-(trifluoromethyl)phenyl]azetidin-3-yl}acetamide]",0.892%
3,"C=CC(=O)N1CCC(C(=O)N2CCc3ccccc32)CC1 [1-E09, 1-[4-(2,3-dihydro-1H-indole-1-carbonyl)piperidin-1-yl]prop-2-en-1-one]",68%
4,"CC(Cl)C(=O)Nc1ccccc1[N+](=O)[O-] (centres unmarked) [4-G18, 2-chloro-N-(2-nitrophenyl)propanamide]",103%
5,"COCc1ccc(CNC(=O)CCl)cc1 [6-O22, 2-chloro-N-{[4-(methoxymethyl)phenyl]methyl}acetamide]",99.4%
6,"C=CC(=O)N1CCN(C(=O)c2ccc(OC)c(OC)c2OC)CC1 [1-H12, 1-[4-(2,3,4-trimethoxybenzoyl)piperazin-1-yl]prop-2-en-1-one]",80%
7,"C=CC(=O)N(Cc1c(C)nn(CC)c1C)c1ccc2c(c1)COC2 [2-G13, N-(1,3-dihydro-2-benzofuran-5-yl)-N-[(1-ethyl-3,5-dimethyl-1H-pyrazol-4-yl)methyl]prop-2-enamide]",80.2%
8,"N#CC(=Cc1cc(C#N)cs1)C(=O)NC(N)=O [8-F04, {2-cyano-2-[(4-cyanothiophen-2-yl)methylidene]acetyl}urea]",85.8%
9,"C=CC(=O)N1CCC(C(=O)NCc2ncc(N(C)C)cn2)CC1 [3-L03, N-{[5-(dimethylamino)pyrimidin-2-yl]methyl}-1-(prop-2-enoyl)piperidine-4-carboxamide]",68.2%
10,"Cc1nc(CNC(=O)N2CCSSCC2)cs1 [10-O18, N-[(2-methyl-1,3-thiazol-4-yl)methyl]-1,2,5-dithiazepane-5-carboxamide]",112%
11,"C=CC(=O)N1CCCC2(CCCCO2)C1 (centres unmarked) [3-O09, 1-{1-oxa-8-azaspiro[5.5]undecan-8-yl}prop-2-en-1-one]",57%
12,"C=CC(=O)N[C@H]1CCN(S(=O)(=O)c2ccccc2)C1 [3-P11, N-[(3S)-1-(benzenesulfonyl)pyrrolidin-3-yl]prop-2-enamide]",54.4%
13,"C=CC(=O)N1CCC(C(=O)NCc2cnn(-c3ccccc3)c2)CC1 [3-O14, N-[(1-phenyl-1H-pyrazol-4-yl)methyl]-1-(prop-2-enoyl)piperidine-4-carboxamide]",91.1%
14,"O=C(CCl)NCc1ccccc1OC1CCCC1 [6-C14, 2-chloro-N-{[2-(cyclopentyloxy)phenyl]methyl}acetamide]",2.1%
15,"C=CC(=O)Nc1ccnn1Cc1cccc(Cl)c1 [1-N14, N-{1-[(3-chlorophenyl)methyl]-1H-pyrazol-5-yl}prop-2-enamide]",1.05%
16,"C=CC(=O)N1CCC(C(=O)N2CCN(c3ccnc(C)n3)CC2)CC1 [2-L06, 1-{4-[4-(2-methylpyrimidin-4-yl)piperazine-1-carbonyl]piperidin-1-yl}prop-2-en-1-one]",88.5%
17,"CCCn1c(C)cc(C=C(C#N)C(=O)Nc2cccc(F)c2)c1C [8-L19, 2-cyano-3-(2,5-dimethyl-1-propyl-1H-pyrrol-3-yl)-N-(3-fluorophenyl)prop-2-enamide]",103%
18,"C=CC(=O)NCCC(=O)NC1CCCCC12OCCO2 (centres unmarked) [2-O08, N-[2-({1,4-dioxaspiro[4.5]decan-6-yl}carbamoyl)ethyl]prop-2-enamide]",106%
19,"Cc1nc(C)c(S(=O)(=O)N2CCSSCC2)s1 [10-M18, 5-[(2,4-dimethyl-1,3-thiazol-5-yl)sulfonyl]-1,2,5-dithiazepane]",90.2%
20,"N#CC(=Cc1c[nH]c2ccccc12)C(=O)Nc1ccc2c(c1)OCCO2 [9-B07, 2-cyano-N-(2,3-dihydro-1,4-benzodioxin-6-yl)-3-(1H-indol-3-yl)prop-2-enamide]",101%
21,"C=CC(=O)N(C)CC(=O)Nc1ccc(N2CCOCC2=O)c(C)c1 [3-J07, N-methyl-N-({[3-methyl-4-(3-oxomorpholin-4-yl)phenyl]carbamoyl}methyl)prop-2-enamide]",51.4%
22,"N#CC(=Cc1cccc(O)c1)C(=O)Nc1ccc(SC(F)F)cc1 [9-C19, 2-cyano-N-{4-[(difluoromethyl)sulfanyl]phenyl}-3-(3-hydroxyphenyl)prop-2-enamide]",99.7%
23,"O=C(CCl)NCC(=O)Nc1ccc(F)c(F)c1F [4-D18, 2-chloro-N-{[(2,3,4-trifluorophenyl)carbamoyl]methyl}acetamide]",2.12%
24,"O=C1C=CC(=O)N1CCc1ccc(F)cc1 [10-C21, 1-[2-(4-fluorophenyl)ethyl]-2,5-dihydro-1H-pyrrole-2,5-dione]",21.9%
25,"CC(Cl)C(=O)Nc1ccc2c(c1)OCCCO2 (centres unmarked) [4-K10, 2-chloro-N-(3,4-dihydro-2H-1,5-benzodioxepin-7-yl)propanamide]",85.4%
26,"CC(Cl)C(=O)NC(C)c1nc(-c2cccnc2)cs1 (centres unmarked) [6-P07, 2-chloro-N-{1-[4-(pyridin-3-yl)-1,3-thiazol-2-yl]ethyl}propanamide]",115%
27,"CC(NC(=O)CCl)c1cn(C)c2cc(Cl)ccc12 (centres unmarked) [5-E11, 2-chloro-N-[1-(6-chloro-1-methyl-1H-indol-3-yl)ethyl]acetamide]",0.196%

row,Compound,"viability at 48 h, 25 µM"
1,"C=CC(=O)Nc1nn(CC(C)C)cc1Cl [2-G05, N-[4-chloro-1-(2-methylpropyl)-1H-pyrazol-3-yl]prop-2-enamide]",103%
2,"CC(Cl)C(=O)Nc1ccc(F)cc1 (centres unmarked) [6-K15, 2-chloro-N-(4-fluorophenyl)propanamide]",113%
3,"CC(Cl)C(=O)Nc1ccccc1 (centres unmarked) [5-F10, 2-chloro-N-phenylpropanamide]",91.9%
4,"N#CCCN(C(=O)CCl)c1ccccc1 [6-I12, 2-chloro-N-(2-cyanoethyl)-N-phenylacetamide]",1.62%
5,"COc1ccccc1NC(=O)C(C#N)=Cc1cc(C)c(C)cc1C [9-A10, 2-cyano-N-(2-methoxyphenyl)-3-(2,4,5-trimethylphenyl)prop-2-enamide]",115%
6,"CC1CSc2ccc(Cl)cc2N(C(=O)CCl)C1 (centres unmarked) [5-J05, 2-chloro-1-(7-chloro-3-methyl-2,3,4,5-tetrahydro-1,5-benzothiazepin-5-yl)ethan-1-one]",1.21%
7,"Cc1cc(CN(C(=O)CCl)c2csnc2C)cs1 [5-C12, 2-chloro-N-(3-methyl-1,2-thiazol-4-yl)-N-[(5-methylthiophen-3-yl)methyl]acetamide]",0.6%
8,"O=C(CCl)c1sccc1Cl [10-K11, 2-chloro-1-(3-chlorothiophen-2-yl)ethan-1-one]",17%
9,"C=CC(=O)N1CCC(C(=O)Nc2cc(Cl)ccc2SCC)CC1 [1-E06, N-[5-chloro-2-(ethylsulfanyl)phenyl]-1-(prop-2-enoyl)piperidine-4-carboxamide]",111%
10,"C=CC(=O)N1CCC(C(=O)NCc2ccoc2C)CC1 [1-E14, N-[(2-methylfuran-3-yl)methyl]-1-(prop-2-enoyl)piperidine-4-carboxamide]",85.4%
11,"C=CC(=O)NCCc1nnc(C(C)C)s1 [2-L05, N-{2-[5-(propan-2-yl)-1,3,4-thiadiazol-2-yl]ethyl}prop-2-enamide]",61.9%
12,"O=C(CCl)N(Cc1ccnn1C1CCC1)C1CC=CCC1 (centres unmarked) [5-I14, 2-chloro-N-[(1-cyclobutyl-1H-pyrazol-5-yl)methyl]-N-(cyclohex-3-en-1-yl)acetamide]",0.326%
13,"C=CC(=O)NCc1ccc2oc(=O)[nH]c2c1 [3-D14, N-[(2-oxo-2,3-dihydro-1,3-benzoxazol-5-yl)methyl]prop-2-enamide]",103%
14,"C=CC(=O)Nc1cc(CC(C)(C)C)no1 [1-I19, N-[3-(2,2-dimethylpropyl)-1,2-oxazol-5-yl]prop-2-enamide]",1.69%
15,"CC(Cl)C(=O)N1CCCC1c1cccc2c1OCCO2 (centres unmarked) [7-L11, 2-chloro-1-[2-(2,3-dihydro-1,4-benzodioxin-5-yl)pyrrolidin-1-yl]propan-1-one]",89.6%
16,"C=CC(=O)NC(CO)c1ccnn1C (centres unmarked) [2-D17, N-[2-hydroxy-1-(1-methyl-1H-pyrazol-5-yl)ethyl]prop-2-enamide]",45.9%
17,"Cc1ccc(NC(=O)CCl)cc1S(=O)(=O)N1CCOCC1 [4-L07, 2-chloro-N-[4-methyl-3-(morpholine-4-sulfonyl)phenyl]acetamide]",0.278%
18,"C=CC(=O)Nc1cnn(CC(F)(F)F)c1 [1-A11, N-[1-(2,2,2-trifluoroethyl)-1H-pyrazol-4-yl]prop-2-enamide]",91.8%
19,"CCCn1c(C)cc(C=C(C#N)C(=O)Nc2ccccc2)c1C [8-H05, 2-cyano-3-(2,5-dimethyl-1-propyl-1H-pyrrol-3-yl)-N-phenylprop-2-enamide]",108%
20,"CC1(C)Cc2cc(C=C(C#N)C(=O)Nc3ccccc3F)ccc2O1 [8-G20, 2-cyano-3-(2,2-dimethyl-2,3-dihydro-1-benzofuran-5-yl)-N-(2-fluorophenyl)prop-2-enamide]",68%
21,"O=C(CCl)NC(c1cc(F)ccc1F)C(F)F (centres unmarked) [7-F22, 2-chloro-N-[1-(2,5-difluorophenyl)-2,2-difluoroethyl]acetamide]",0.697%
22,"C=CC(=O)Nc1ccc2cc(N(C)C)ccc2c1 [1-E19, N-[6-(dimethylamino)naphthalen-2-yl]prop-2-enamide]",46.5%
23,"O=C1C=CC(=O)N1c1cccc(O)c1 [10-O07, 1-(3-hydroxyphenyl)-2,5-dihydro-1H-pyrrole-2,5-dione]",68.4%
24,"CC(=O)Nc1ccc(C=C(C#N)C(=O)NCc2ccccc2)cc1 [8-D12, N-benzyl-2-cyano-3-(4-acetamidophenyl)prop-2-enamide]",84.4%
25,"CC(C)NC(=O)C(C#N)=Cc1cc(F)ccc1F [8-C08, 2-cyano-3-(2,5-difluorophenyl)-N-(propan-2-yl)prop-2-enamide]",138%
26,"O=C1C=CC(=O)N1c1ccc(F)c(Cl)c1 [10-D15, 1-(3-chloro-4-fluorophenyl)-2,5-dihydro-1H-pyrrole-2,5-dione]",79.2%
